Results as given in the supplement of paper PMC10307832.

Columns and labels:
Experiment in all cases: relative viability (nuclei count vs DMSO), 5 days (fraction); higher = more cells survive
[1] = compound: C1=CC=C(C(=C1)C2=CC=C(C=C2)C3=CSC4=C3C(=C(C(=O)N4)C#N)O)O + Cc1cc(Nc2cc(N3CCN(C)CC3)nc(Sc3ccc(NC(=O)C4CC4)cc3)n2)n[nH]1 [Tozasertib] (partner 0.1 µM)
In short: (§1)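 Lung cancer cell lines in 1536-well plates got either a single drug or a fixed anchor-drug dose together with five library-drug doses (not always all listed) in √10 steps, by pin tool, on the day after seeding. Nuclei were counted after 5 days, and relative viability is the treated-to-vehicle ratio of nuclei counts. Values are medians of duplicate plates.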

TGX 221 + OSI-027 = compound: CC1=CN2C(=O)C=C(N=C2C(=C1)C(C)NC3=CC=CC=C3)N4CCOCC4 [TGX 221] + COc1cccc2cc(-c3nc([C@H]4CC[C@H](C(=O)O)CC4)n4ncnc(N)c34)[nH]c12 [OSI-027] (partner 0.5 µM)
In short: as §1

[2] = compound: O=C(CCCCCCNC(=O)c1cnc(N(c2ccccc2)c2ccccc2)nc1)NO [Ricolinostat] + O=C(CCCCCCC(=O)Nc1ccccc1)NO [Vorinostat] (partner 1 µM)
In short: as §1

[3] = compound: O=C(CCCCCCNC(=O)c1cnc(N(c2ccccc2)c2ccccc2)nc1)NO [Ricolinostat] + CS(=O)(=O)N1CCN(Cc2cc3nc(-c4cccc5[nH]ncc45)nc(N4CCOCC4)c3s2)CC1 [Pictilisib] (partner 1 µM)
In short: as §1

Cell Line	relative viability ([1]; first compound 0.08 µM)	relative viability ([1]; first compound 0.8 µM)	relative viability ([1]; first compound 2.53 µM)	relative viability ([1]; first compound 8 µM)	relative viability (TGX 221 + OSI-027; first compound 0.08 µM)	relative viability (TGX 221 + OSI-027; first compound 0.8 µM)	relative viability (TGX 221 + OSI-027; first compound 2.53 µM)	relative viability (TGX 221 + OSI-027; first compound 8 µM)	relative viability ([2]; first compound 0.253 µM)	relative viability ([2]; first compound 0.8 µM)	relative viability ([2]; first compound 2.53 µM)	relative viability ([1]; first compound 0.253 µM)	relative viability (TGX 221 + OSI-027; first compound 0.253 µM)	relative viability ([3]; first compound 0.08 µM)	relative viability ([3]; first compound 0.8 µM)	relative viability ([3]; first compound 2.53 µM)	relative viability ([2]; first compound 0.08 µM)	relative viability ([3]; first compound 0.253 µM)
NCI-H1648	0.503	0.413	0.6	0.392	0.268	0.256	0.237	0.254	0.483	0.458	0.254	–	–	–	–	–	–	–
NCI-H1755	0.735	0.544	0.629	0.728	0.685	0.605	0.657	0.697	0.715	0.673	0.484	0.571	0.728	0.278	0.402	0.312	0.665	–
PC-3 [JPC-3]	0.606	0.928	0.876	0.716	0.756	0.788	0.751	0.806	0.854	0.448	0.669	0.401	0.775	0.669	0.673	0.456	0.505	0.808
HCC-44	–	0.876	1.03	0.744	–	0.51	0.543	0.41	0.99	1.06	1.06	1.36	0.417	0.551	0.635	0.424	1.16	0.673
CAL-12T	0.272	0.305	0.337	0.282	0.604	0.821	0.486	0.567	0.524	0.698	0.379	0.334	0.471	0.339	0.344	0.388	0.801	0.479
ChaGo-K-1	0.242	0.239	0.232	0.208	0.529	0.581	0.474	0.64	0.762	0.73	0.523	0.238	0.547	0.916	0.616	0.625	0.717	0.676
NCI-H2126	0.687	0.893	0.923	0.809	0.703	0.619	0.539	0.702	0.796	0.684	0.485	0.956	0.733	0.393	0.459	0.383	0.456	0.497
HCC-827	0.477	0.402	0.507	0.399	0.735	0.799	0.727	0.78	0.86	0.574	0.915	0.455	0.761	0.956	0.948	1.09	0.768	0.965
LCLC-97TM1	0.22	0.164	0.222	0.187	0.357	0.494	0.485	0.546	0.556	0.628	0.333	0.187	0.466	0.205	0.168	0.141	0.487	0.181
HCC-15	0.474	0.371	0.554	0.371	0.672	0.754	0.592	0.681	0.746	0.691	0.618	0.579	0.713	0.647	0.779	0.617	0.768	0.79
NCI-H727	0.537	0.762	0.702	0.53	0.556	0.693	0.529	0.566	1.15	1.08	0.936	0.604	0.478	0.305	0.623	0.291	1.13	0.409
NCI-H2170	0.71	0.875	0.721	0.634	0.717	0.681	0.66	0.712	0.744	0.737	0.501	0.709	0.737	0.27	0.355	0.287	0.774	0.315
201T	0.743	1.01	1.05	0.926	0.547	1.08	0.708	0.696	0.951	0.959	0.843	1.03	0.726	0.586	0.727	0.606	0.818	0.748
NCI-H838	0.264	0.285	0.309	0.268	0.399	0.326	0.365	0.355	0.689	0.582	0.315	0.271	0.326	0.326	0.613	0.531	0.725	0.563
NCI-H1915	0.428	–	0.491	0.382	0.575	0.63	0.472	0.619	0.51	0.467	0.326	0.484	0.601	0.852	0.869	0.729	0.468	0.928
LCLC-103H	0.481	0.592	0.503	0.457	0.425	0.438	0.394	0.411	0.738	0.639	0.522	0.478	0.453	0.456	0.583	0.547	0.662	0.47
SK-LU-1	0.319	0.293	0.379	0.306	0.31	0.288	0.273	0.298	0.613	0.731	0.607	0.265	0.331	0.478	0.423	0.485	0.669	0.469
NCI-H2347	0.574	1.06	0.526	0.583	0.463	0.376	0.29	0.296	0.567	0.55	0.469	0.461	0.321	0.451	0.884	0.644	0.449	0.628
ABC-1	0.214	0.205	0.265	0.186	0.518	0.593	0.432	0.406	1.06	0.749	0.762	0.204	0.505	0.541	0.606	0.446	1.02	0.731
NCI-H1563	–	–	–	–	0.796	0.69	0.754	0.633	–	–	–	–	0.653	0.634	0.627	0.732	–	0.674
NCI-H1355	0.478	0.547	0.518	0.476	0.377	0.385	0.314	0.331	0.627	0.619	0.533	0.516	0.427	–	0.419	0.316	0.64	0.418

Cell Line	relative viability ([1]; first compound 0.08 µM)	relative viability ([1]; first compound 0.8 µM)	relative viability ([1]; first compound 2.53 µM)	relative viability ([1]; first compound 8 µM)	relative viability (TGX 221 + OSI-027; first compound 0.08 µM)	relative viability (TGX 221 + OSI-027; first compound 0.8 µM)	relative viability (TGX 221 + OSI-027; first compound 2.53 µM)	relative viability (TGX 221 + OSI-027; first compound 8 µM)	relative viability ([2]; first compound 0.253 µM)	relative viability ([2]; first compound 0.8 µM)	relative viability ([2]; first compound 2.53 µM)	relative viability ([1]; first compound 0.253 µM)	relative viability (TGX 221 + OSI-027; first compound 0.253 µM)	relative viability ([3]; first compound 0.08 µM)	relative viability ([3]; first compound 0.8 µM)	relative viability ([3]; first compound 2.53 µM)	relative viability ([2]; first compound 0.08 µM)	relative viability ([3]; first compound 0.253 µM)
NCI-H2228	0.288	0.245	0.297	0.277	0.654	0.638	0.453	0.463	0.647	0.605	0.64	0.244	0.522	0.309	0.355	0.24	0.896	0.407
LXF-289	0.179	0.201	0.179	0.191	0.817	0.756	0.754	0.757	0.723	0.681	0.483	0.173	0.809	0.702	0.804	0.554	0.697	0.809
NCI-H2085	0.8	0.874	0.749	0.74	0.714	0.659	0.323	0.462	0.751	0.731	0.631	0.801	0.645	–	0.431	0.416	–	0.447
NCI-H2342	0.498	0.543	0.399	0.48	0.544	0.613	0.631	0.602	0.694	0.757	0.745	0.493	0.655	–	–	–	0.693	–
EMC-BAC-2	0.297	0.254	0.327	0.305	0.376	0.348	0.359	0.366	0.417	0.25	0.293	0.303	0.443	0.433	0.558	0.442	0.398	0.578
IA-LM	–	–	–	–	–	–	–	–	0.96	0.8	0.647	–	–	0.234	0.308	0.316	–	0.35
A549	–	–	–	–	–	–	–	–	–	–	–	–	–	0.405	0.471	0.312	–	0.517
NCI-H3122	0.355	0.451	0.507	0.419	0.874	1	0.864	0.963	0.848	0.853	0.708	0.451	0.929	0.533	0.696	0.866	0.966	0.606
LC-2-ad	0.502	0.487	0.429	0.425	0.745	0.931	0.846	0.804	0.67	0.64	0.458	0.539	0.759	0.4	0.433	0.236	0.68	0.546
NCI-H1734	0.266	0.279	0.288	0.216	0.57	0.621	0.527	0.532	0.891	0.702	0.67	0.238	0.579	0.371	0.495	0.402	0.725	0.467
NCI-H1975	0.54	0.826	1.02	0.651	0.694	0.653	0.528	0.555	0.671	0.566	0.609	0.742	0.676	0.283	–	0.231	0.655	0.309
NCI-H1793	0.374	0.354	0.337	0.34	0.249	0.248	0.183	0.218	0.72	0.566	0.726	0.331	0.237	–	0.311	0.298	0.519	0.31
NCI-H1650	0.325	0.417	0.442	0.486	0.648	0.737	0.661	0.529	0.535	0.485	0.372	0.386	0.55	0.423	0.395	0.347	0.544	0.523
NCI-H1651	0.819	0.792	0.716	0.607	0.555	0.63	0.59	0.586	0.594	0.411	0.395	0.714	0.632	0.612	0.571	0.44	0.459	0.55
NCI-H1299	–	–	–	–	–	–	–	–	–	–	–	–	–	0.77	0.784	0.603	–	0.796
SW 900	0.618	0.645	0.539	0.491	0.609	0.449	0.429	0.713	0.61	0.483	0.327	0.491	0.482	–	–	–	0.446	–
NCI-H1703	–	–	–	–	–	–	–	–	–	–	–	–	–	–	0.247	0.275	–	0.253
NCI-H522	0.523	0.548	0.541	0.541	0.606	0.704	0.789	0.641	0.919	0.855	0.628	0.435	0.739	–	–	–	0.836	–
NCI-H1623	0.408	0.397	0.457	0.436	0.44	0.423	0.389	0.477	–	–	–	0.53	0.402	–	–	–	–	–
Calu-6	–	–	–	–	–	–	–	–	–	–	–	–	–	0.898	0.795	0.648	–	0.91
EBC-1	–	–	–	–	–	–	–	–	–	–	–	–	–	0.372	0.26	0.165	–	0.403
